According to patent US7858635B2 (priority 2005, dated 2010):
Read-outs that look alike come from different tables or passages of the source.

Experiments:
M1 muscarinic receptor = target: T1, M1 muscarinic receptor (Homo sapiens, UniProt P11229); experiment: Functional mobilization of intracellular calcium (FLIPR, Fluo-3), M1-CHO cells; assay type: cell-based; conditions: for Emax: read-out: M1 Efficacy
T1 construct: expressed in transfected cells; host or cells: CHO cells (M1-CHO, under zeocin and G418 selection)
T1 sequence (P11229 1-460): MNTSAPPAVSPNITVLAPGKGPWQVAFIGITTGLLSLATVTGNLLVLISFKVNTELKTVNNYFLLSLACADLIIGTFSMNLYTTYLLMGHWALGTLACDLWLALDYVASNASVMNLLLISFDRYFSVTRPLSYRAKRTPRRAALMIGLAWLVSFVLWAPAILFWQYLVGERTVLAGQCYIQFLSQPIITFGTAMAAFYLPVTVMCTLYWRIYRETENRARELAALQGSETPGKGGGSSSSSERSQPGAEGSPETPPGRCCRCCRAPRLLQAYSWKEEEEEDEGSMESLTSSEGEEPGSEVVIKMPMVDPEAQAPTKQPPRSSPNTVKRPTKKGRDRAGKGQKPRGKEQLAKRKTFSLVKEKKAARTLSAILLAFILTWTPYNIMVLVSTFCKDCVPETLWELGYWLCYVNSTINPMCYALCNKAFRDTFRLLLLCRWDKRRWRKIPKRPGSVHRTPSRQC
Outline: (§1)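 Fluo-3 read-out, ex 488/em 540 nm, 60 sec on FLIPR 3. For agonist mode, compound added directly; for inhibition, 15 min compound pre-incubation before carbachol at EC80 (added as a 3× solution), or co-application. Buffer pH 7.4 with 1 mM probenecid; DMSO 0.5%.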

M4 muscarinic receptor = target: T2, M4 muscarinic receptor (Homo sapiens, UniProt P08173); experiment: Functional mobilization of intracellular calcium (FLIPR, Fluo-3), M4-CHO cells; assay type: cell-based; conditions: for Emax: read-out: M4 Efficacy
T2 construct: expressed in transfected cells; host or cells: CHO cells (M4-CHO, under puromycin, zeocin and blasticidin selection)
T2 sequence (P08173 1-479): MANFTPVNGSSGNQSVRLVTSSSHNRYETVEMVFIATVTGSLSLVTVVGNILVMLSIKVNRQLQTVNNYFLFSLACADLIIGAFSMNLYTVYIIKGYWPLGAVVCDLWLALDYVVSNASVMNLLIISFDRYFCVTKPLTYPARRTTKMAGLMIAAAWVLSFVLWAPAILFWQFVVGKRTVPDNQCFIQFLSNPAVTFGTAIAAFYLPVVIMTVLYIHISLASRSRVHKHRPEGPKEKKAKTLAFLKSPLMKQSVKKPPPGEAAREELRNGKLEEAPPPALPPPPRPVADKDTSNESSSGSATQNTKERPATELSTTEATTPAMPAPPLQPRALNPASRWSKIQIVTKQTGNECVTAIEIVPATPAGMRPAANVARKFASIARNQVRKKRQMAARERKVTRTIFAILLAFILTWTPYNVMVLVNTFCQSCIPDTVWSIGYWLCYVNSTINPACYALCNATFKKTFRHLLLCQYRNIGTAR
Outline: as §1

[1] = compound nos. 455-509, 100% efficacy is the maximum response obtained with the Carbachol control
[2] = compound nos. 1-454, 100% efficacy is the maximum response obtained with the Carbachol control
[3] = compound nos. 1-454, M1-CHO cells, calcium mobilization
[4] = compound nos. 1-454, M4-CHO cells, calcium mobilization

Row | Compound | Emax (M1 muscarinic receptor; [2]) [%] | Emax (M4 muscarinic receptor; [2]) [%] | M1 Activity (M1 muscarinic receptor; [3]) | M4 Activity (M4 muscarinic receptor; [4]) | also measured
1 | CN(C)C(=O)N1CC2(CCN(C3CCN(c4cnc(-c5ccncc5)cn4)CC3)CC2)c2ccccc21 [compound 467] | – | – | – | – | Emax (M1 muscarinic receptor; [1]): > 100%; M1 Activity (M1 muscarinic receptor; compounds 455-509): +++ (activity was measured to be less than or equal to 2.0 μM); Emax (M4 muscarinic receptor; [1]): 25 to 100%; M4 Activity (M4 muscarinic receptor; compounds 455-509): + (activity was measured to be greater than or equal to 5.0 μM)
2 | Fc1ccc2c(c1)C1(CCN(C[C@@H]3C[C@H]4CC[C@H]3O4)CC1)CN2 [compound 429] | < 65 | < 55 | – | – | M1 Activity (M1 muscarinic receptor; compound nos. 1-454): ++ (activity was measured to be between 0.7 μM and 3.0 μM); M4 Activity (M4 muscarinic receptor; compound nos. 1-454): + (activity was measured to be greater than or equal to 4.0 μM)
3 | CC(=O)N1CC2(CCN(C3CCN(C(=O)O[C@@H]4CCOC4)CC3)CC2)c2cc(C)ccc21 [compound 279] | < 65 | < 55 | ++ (activity was measured to be between 0.7 μM and 3.0 μM) | ++ (activity was measured to be between 0.1 μM and 4.0 μM) | –
4 | Cc1ccc2c(c1)C1(CCN(C3CC4CCC3C4)CC1)CN2C(=O)OC(C)(C)C (stereo not drawn) [compound 116] | 65 to 85 | < 55 | +++ (activity was measured to be less than or equal to 0.7 μM) | ++ (activity was measured to be between 0.1 μM and 4.0 μM) | –
5 | CC(=O)NC1CC2(CCN(C[C@@H]3C[C@H]4C=C[C@H]3C4)CC2)c2ccccc21 (stereo partly drawn) [compound 421] | – | – | – | – | M1 Activity (M1 muscarinic receptor; compound nos. 1-454): + (activity was measured to be greater than or equal to 3.0 μM); M1 Efficacy (M1 muscarinic receptor; [2]): + (efficacy was calculated to be 65% or less); M4 Activity (M4 muscarinic receptor; compound nos. 1-454): + (activity was measured to be greater than or equal to 4.0 μM); M4 Efficacy (M4 muscarinic receptor; [2]): + (efficacy was calculated to be 55% or less)
6 | CCOC(=O)N1CCC(CN2CCC3(CC2)CN(C(C)=O)c2ccc(F)cc23)CC1 [compound 60] | 65 to 85 | 55 to 70 | ++ (activity was measured to be between 0.7 μM and 3.0 μM) | + (activity was measured to be greater than or equal to 4.0 μM) | –
7 | Cc1ccc2c(c1)C1(CCN(CC3CC4CCC3O4)CC1)CN2 (stereo not drawn) [compound 372] | 65 to 85 | > 70 | +++ (activity was measured to be less than or equal to 0.7 μM) | ++ (activity was measured to be between 0.1 μM and 4.0 μM) | –
8 | COC(=O)N1CC2(CCN(C3CC4CCC(C3)N4C(=O)O[C@H]3CCOC3)CC2)c2cc(F)ccc21 (stereo partly drawn) [compound 96] | 65 to 85 | < 55 | ++ (activity was measured to be between 0.7 μM and 3.0 μM) | + (activity was measured to be greater than or equal to 4.0 μM) | –
9 | CCOC(=O)N1C2CCC1CC(N1CCC3(CC1)CN(C(=O)c1cc(C)oc1C)c1ccc(F)cc13)C2 (stereo not drawn) [compound 73] | 65 to 85 | 55 to 70 | +++ (activity was measured to be less than or equal to 0.7 μM) | ++ (activity was measured to be between 0.1 μM and 4.0 μM) | –
10 | Cc1ncc(N2CCC(N3CCC4(CCN(C(=O)N(C)C)c5ccccc54)CC3)CC2)nc1C [compound 461] | – | – | – | – | Emax (M1 muscarinic receptor; [1]): > 100%; M1 Activity (M1 muscarinic receptor; compounds 455-509): ++ (activity was measured to be between 2.0 μM and 5.0 μM); Emax (M4 muscarinic receptor; [1]): 25 to 100%; M4 Activity (M4 muscarinic receptor; compounds 455-509): ++ (activity was measured to be between 2.0 μM and 5.0 μM)
11 | CCCCOC(=O)N1C2CCC1CC(N1CCC3(CC1)COc1ccc(F)cc13)C2 (stereo not drawn) [compound 286] | < 65 | < 55 | ++ (activity was measured to be between 0.7 μM and 3.0 μM) | + (activity was measured to be greater than or equal to 4.0 μM) | –
12 | COC(=O)N1CCCC(N2CCC3(CC2)CN(C(C)=O)c2ccc(F)cc23)CC1 (stereo not drawn) [compound 132] | > 85 | > 70 | +++ (activity was measured to be less than or equal to 0.7 μM) | +++ (activity was measured to be less than or equal to 0.1 μM) | –
13 | CCCOC(=O)N1CCCC(N2CCC3(CC2)CN(C(C)=O)c2ccc(F)cc23)CC1 (stereo not drawn) [compound 266] | < 65 | < 55 | + (activity was measured to be greater than or equal to 3.0 μM) | + (activity was measured to be greater than or equal to 4.0 μM) | –
14 | CCOC(=O)N1CCC(N2CCC3(CC2)CN(CCOC)c2ccc(F)cc23)CC1 [compound 391] | < 65 | < 55 | – | – | M1 Activity (M1 muscarinic receptor; compound nos. 1-454): ++ (activity was measured to be between 0.7 μM and 3.0 μM); M4 Activity (M4 muscarinic receptor; compound nos. 1-454): + (activity was measured to be greater than or equal to 4.0 μM)
15 | CCOC(=O)N1CCC(N2CCC3(CC2)CN(C(C)=O)c2ccc(-c4ccccc4F)cc23)CC1 [compound 146] | > 85 | > 70 | +++ (activity was measured to be less than or equal to 0.7 μM) | +++ (activity was measured to be less than or equal to 0.1 μM) | –
16 | CC(=O)N1CC2(CCN(C3CCOCC3)CC2)c2cc(F)ccc21 [compound 268] | < 65 | < 55 | + (activity was measured to be greater than or equal to 3.0 μM) | + (activity was measured to be greater than or equal to 4.0 μM) | –
17 | CCOC(=O)N1CCC(CN2CCC3(CC2)CN(C(C)=O)c2ccc(OC(F)(F)F)cc23)CC1 [compound 21] | < 65 | < 55 | ++ (activity was measured to be between 0.7 μM and 3.0 μM) | + (activity was measured to be greater than or equal to 4.0 μM) | –
18 | CC(=O)N1CC2(CCN(CC3CCCCC3)CC2)c2cc(F)ccc21 [compound 393] | 65 to 85 | < 55 | – | – | M1 Activity (M1 muscarinic receptor; compound nos. 1-454): +++ (activity was measured to be less than or equal to 0.7 μM); M4 Activity (M4 muscarinic receptor; compound nos. 1-454): + (activity was measured to be greater than or equal to 4.0 μM)
19 | CN(C)C(=O)N1CC2(CCN(C3CCN(c4cccnc4)CC3)CC2)c2cc(F)ccc21 [compound 453] | 65 to 85 | 55 to 70 | – | – | M1 Activity (M1 muscarinic receptor; compound nos. 1-454): +++ (activity was measured to be less than or equal to 0.7 μM); M4 Activity (M4 muscarinic receptor; compound nos. 1-454): +++ (activity was measured to be less than or equal to 0.1 μM)
20 | Cc1cnc(N2CCC(N3CCC4(CC3)CN(C(=O)N(C)C)c3ccccc34)CC2)cn1 [compound 468] | – | – | – | – | Emax (M1 muscarinic receptor; [1]): > 100%; M1 Activity (M1 muscarinic receptor; compounds 455-509): + (activity was measured to be greater than or equal to 5.0 μM); Emax (M4 muscarinic receptor; [1]): 25 to 100%; M4 Activity (M4 muscarinic receptor; compounds 455-509): ++ (activity was measured to be between 2.0 μM and 5.0 μM)
21 | c1ccc2c(c1)CCC21CCN(CC2CCOCC2)CC1 [compound 18] | < 65 | > 70 | +++ (activity was measured to be less than or equal to 0.7 μM) | ++ (activity was measured to be between 0.1 μM and 4.0 μM) | –
